We go through four compounds from US4536397A, “Antibiotics, neoviridogriseins, and their method of production” (Sanraku-Ocean Co., Ltd., priority 1983, dated 1985).

Data set [1] deals with Staphylococcus aureus. The data set can be described thus: MIC, tube dilution method. The following applies: BHI broth. In kind it is cell-based.
Another data set concerns Escherichia coli. The experiment in a line: MIC, tube dilution method. In kind it is cell-based. The following applies: BHI broth.
A further data set deals with Streptococcus pyogenes. The experiment in a line: MIC, tube dilution method. In kind it is cell-based. To be noted: BHI broth containing 10% horse blood.
In data set [2] the test system is Staphylococcus aureus. The experiment in a line: MIC repeated with a far lower dilution rate. The class given is cell-based. To be noted: for MIC: far lower dilution rate, brain heart infusion broth. An excerpt: This MIC experiment was based on the two-fold dilutions. To differentiate neoviridogrisein II and viridogrisein in their antibiotic activity, the MIC determination was repeated with a far lower dilution rate.
Medium: brain heart infusion broth

For a further data set, the system named is Staphylococcus sp. The experiment in a line: MIC, tube dilution method. In kind it is cell-based. The following applies: BHI broth.
Another data set concerns Candida albicans. The experiment in a line: MIC, tube dilution method. The class given is cell-based. The following applies: malt extract-yeast extract medium.
Data set [3] deals with Mycoplasma gallisepticum KP13. The data set can be described thus: MIC, dilution method, Mycoplasma. In kind it is cell-based. Further details: unit not given beside the values. To be noted: Table 4; PPLO enrichment broth (Eiken). On the procedure: (§1) The MIC were determined by the dilution method.
Medium (1): PPLO enrichment broth (Eiken, Japan)
(§2) was tested in vitro agains several Mycoplasma strains.

In another data set the test system is Salmonella gallinanum. The experiment in a line: MIC, tube dilution method. The following applies: BHI broth. The class given is cell-based.
Data set [4] has as its system Diplococcus pneumoniac type 1. The experiment in a line: MIC, tube dilution method. In kind it is cell-based, Diplococcus pneumoniae. The following applies: BHI broth containing 10% horse blood.
The next data set concerns Pseudeomonas aeruginosa. The data set can be described thus: MIC, tube dilution method. The following applies: BHI broth. The class given is cell-based.
The subject of data set [5] is Mycoplasma pulmonis PG 22. The experiment in a line: MIC, dilution method, Mycoplasma. The following applies: Table 4; PPLO broth (Chanock's medium; Difco). The class given is cell-based. On the procedure:
as §1
(§3) (2): PPLO broth (Chanock's medium; Difco)
as §2

The test system of data set [6] is Mycoplasma agalactiae PG 2. The data set can be described thus: MIC, dilution method, Mycoplasma. The class given is cell-based. The following applies: Table 4; PPLO broth (Chanock's medium; Difco). On the procedure: as §1, §3, §2
In the next data set the test system is Mycoplasma fermentans. The data set can be described thus: MIC, dilution method, Mycoplasma. In kind it is cell-based. To be noted: Table 4; PPLO broth (Chanock's medium; Difco). On the procedure:
as §1, §3, §2

Data set [7] has as its system Bacillus subtilis ATCC 6633. The data set can be described thus: MIC, tube dilution method. To be noted: BHI broth. In kind it is cell-based.
A further data set relates to Proteus vulgaris. The data set can be described thus: MIC, tube dilution method. The class given is cell-based. The following applies: BHI broth.
The next data set in a line: Solubility in solvents. To be noted: for solubility in organic solvents: methanol, ethanol, propanols, n-butanol, dioxane, acetates, ketones, benzene, toluene, chlorinated solvents, DMF, DMSO. The class given is physicochemical.
The test system of another data set is Sarcina lutea. The data set can be described thus: MIC, tube dilution method (incl. synergism with griseoviridin). In kind it is cell-based.
Data set [8] can be described thus: Growth promotion in chicks on rye diet, 11 days. In kind it is in vivo. The following applies: diet conc 100 ppm. On the procedure:
was tested in vivo by incorporation in the diet of growing chicks. One-day old cockerels, 15 birds per treatment were used. The chicks were maintained for 11 days on a feed containing about 55% rye grain, supplemented with vitamins, minerals, fat and protein sources. The high content of rye grain normally gives poor to moderate growth, and this diet is a standard one used for screening growth promoters and antibiotic feed additives. Penicillin (100 ppm) was used as a positive control. Feed/Gain ratio is grams feed consumed per gram of weight gained. Body weight ratio is the ratio of chick body weight at the end of the 11 day study to the initial body weight. The last column is the average gain per bird (in grams).

Each structure is given as a SMILES string. Converted amounts (≈) assume the structure as drawn. Starred links: 1 amine or outer side, 2 acyl side, 3 side chain; linkers in the order of their positions; H or OH if unused. Positions of bridges follow the written chain, without caps; N, C: chain ends. Non-standard residues stand in square brackets, D forms with d. Residues, ends and D or L forms follow the SMILES beside them. *: point of attachment. X2 = CC(C)[C@H](C)[C@@H](C(=O)[*:2])N(C)[*:1]; d(cisHyp) = O=C(O)[C@H]1C[C@@H](O)CN1; X1 = CC(C)C(C)C(C(=O)[*:2])N(C)[*:1]; Picolinoyl(3-OH) = O=C(c1ncccc1O)*; NMePhg = CN[CH](C(=O)O)c1ccccc1; Sar = CNCC(=O)O

With `CC(C)C[C@H]1NC(=O)[C@@H](NC(=O)c2ncccc2O)[C@@H](C)OC(=O)[C@H](c2ccccc2)N(C)C(=O)[C@H](C)NC(=O)[C@H]([C@@H](C)C(C)C)N(C)C(=O)CN(C)C(=O)[C@H]2C[C@@H](O)CN2C1=O` [VG, viridogrisein] ({Picolinoyl(3-OH)}-T[dL][d(cisHyp)][Sar][X2]A[NMePhg]; ester 1-C), the MIC with Staphylococcus aureus [1] (strain 209P) is 0.2 µg/mL (≈ 0.228 µM); against Staphylococcus aureus [1] (strain (BX-1633)(PC)r) it was 0.4 µg/mL (≈ 0.455 µM); against Staphylococcus aureus [1] (strain (EM)r) it was 0.4 µg/mL (≈ 0.455 µM); with Staphylococcus aureus [1] (strain (EM, CM, SM, PC, TC)r), 0.4 µg/mL (≈ 0.455 µM); with Staphylococcus aureus [1] (strain (EM, OM)r) it was 0.8 µg/mL (≈ 0.91 µM); against Staphylococcus aureus [1] (strain (PC, EM, NM)r), 0.8 µg/mL (≈ 0.91 µM). Also, the MIC in the data set on Staphylococcus aureus [1] (strain (PC, TC, EM, LM)r 1) worked out at 6.25 µg/mL (≈ 7.11 µM); with Staphylococcus aureus [1] (strain (PC, TC, EM, LM)r 2) it was 6.25 µg/mL (≈ 7.11 µM); against Staphylococcus aureus [1] (strain (SM, STH)r), 0.4 µg/mL (≈ 0.455 µM); with Staphylococcus aureus [1] (strain (STH)r), 1.6 µg/mL (≈ 1.82 µM); in the data set on Staphylococcus aureus [1] (strain (TC, CP, PC)r), 0.4 µg/mL (≈ 0.455 µM); in the data set on Staphylococcus aureus [1] (strain (TC, EM, LM, CP)r) it was 6.25 µg/mL (≈ 7.11 µM). Also, the MIC with Staphylococcus aureus [1] (strain Russell(PC)r) was 0.4 µg/mL (≈ 0.455 µM); with Staphylococcus aureus [1] (strain Smith) it was 0.4 µg/mL (≈ 0.455 µM); in the data set with Escherichia coli, over 25 µg/mL; in the data set with Streptococcus pyogenes, 0.4 µg/mL (≈ 0.455 µM); against Staphylococcus aureus [2] (strain 209 P), 0.133 µg/mL (≈ 0.151 µM); in the data set with Staphylococcus aureus [2] (strain (EM, CM, SM, PC, TC)r) it was 0.334 µg/mL (≈ 0.38 µM). The MIC in the data set on Staphylococcus aureus [2] (strain (TC, CP, PC)r) was determined as 0.334 µg/mL (≈ 0.38 µM); in the data set with Staphylococcus aureus [2] (strain Bx-1633(PC)r) it was 0.267 µg/mL (≈ 0.304 µM); against Staphylococcus aureus [2] (strain Russell(PC)r), 0.267 µg/mL (≈ 0.304 µM); against Staphylococcus aureus [2] (strain Smith), 0.267 µg/mL (≈ 0.304 µM); against Staphylococcus sp. (Staphylococcus sp. (PC)r) it was 0.4 µg/mL (≈ 0.455 µM); against Staphylococcus sp. (Staphylococcus sp.) it was 0.8 µg/mL (≈ 0.91 µM). The MIC was over 25 µg/mL in the data set with Candida albicans; 0.10 in [3]; over 25 µg/mL against Salmonella gallinanum; 0.4 µg/mL (≈ 0.455 µM) in data set [4]; over 25 µg/mL with Pseudeomonas aeruginosa; 1.56 in data set [5]. The MIC in [6] is 0.78; in the data set with Mycoplasma fermentans, under 0.05; in data set [7], 0.8 µg/mL (≈ 0.91 µM); against Proteus vulgaris, over 25 µg/mL; with Sarcina lutea (Table 1, BHI broth) it was 0.2 µg/mL. Moreover, the “solubility in organic solvents” value in the data set “Solubility in solvents” was “soluble”. Besides, in the data set “Solubility in solvents”, the “solubility in petroleum ether and hexane” value was “practically insoluble”. Moreover, the “solubility in water and ethyl ether” value in the data set “Solubility in solvents” was “hardly soluble”.

For the compound `CC1(C)S[C@@H]2[C@H](NC(=O)Cc3ccccc3)C(=O)N2[C@H]1C(=O)O` [Penicillin], the “FEED/GAIN RATIO” value in data set [8] (11 days, grams feed consumed per gram of weight gained) was 1.197. The “AVG B.W.GAIN” value in [8] (average gain per bird, 11 days) was 163.20 GMS. The “BODY WEIGHT RATIO” value in data set [8] (body weight at end of 11 days to initial) stood at 5.012.

Regarding `CC(C)CC1NC(=O)C(NC(=O)c2ncccc2O)C(C)OC(=O)C(c2ccccc2)N(C)C(=O)C(C)NC(=O)C(C(C)C(C)C)N(C)C(=O)CN(C)C(=O)C2CCCN2C1=O` (stereo not shown) [NV II, neoviridogrisein II] ({Picolinoyl(3-OH)}-TLP[Sar][X1]A[NMePhg]; ester 1-C; configuration not given here), the MIC was 0.1 µg/mL (≈ 0.116 µM) in the data set on Staphylococcus aureus [1] (strain 209P); 0.2 µg/mL (≈ 0.232 µM) against Staphylococcus aureus [1] (strain (BX-1633)(PC)r); 0.4 µg/mL (≈ 0.463 µM) against Staphylococcus aureus [1] (strain (EM)r); 0.2 µg/mL (≈ 0.232 µM) with Staphylococcus aureus [1] (strain (EM, CM, SM, PC, TC)r); 0.4 µg/mL (≈ 0.463 µM) in the data set on Staphylococcus aureus [1] (strain (EM, OM)r); 0.4 µg/mL (≈ 0.463 µM) against Staphylococcus aureus [1] (strain (PC, EM, NM)r). In addition, the MIC in the data set on Staphylococcus aureus [1] (strain (PC, TC, EM, LM)r 1) is 6.25 µg/mL (≈ 7.24 µM); against Staphylococcus aureus [1] (strain (PC, TC, EM, LM)r 2), 6.25 µg/mL (≈ 7.24 µM); against Staphylococcus aureus [1] (strain (SM, STH)r), 0.2 µg/mL (≈ 0.232 µM); in the data set with Staphylococcus aureus [1] (strain (STH)r), 0.8 µg/mL (≈ 0.927 µM); against Staphylococcus aureus [1] (strain (TC, CP, PC)r), 0.2 µg/mL (≈ 0.232 µM); against Staphylococcus aureus [1] (strain (TC, EM, LM, CP)r), 6.25 µg/mL (≈ 7.24 µM). Further, the MIC was 0.2 µg/mL (≈ 0.232 µM) in the data set on Staphylococcus aureus [1] (strain Russell(PC)r); 0.2 µg/mL (≈ 0.232 µM) with Staphylococcus aureus [1] (strain Smith); over 25 µg/mL against Escherichia coli; 0.2 µg/mL (≈ 0.232 µM) with Streptococcus pyogenes; 0.078 µg/mL (≈ 0.0904 µM) against Staphylococcus aureus [2] (strain 209 P); 0.125 µg/mL (≈ 0.145 µM) in the data set on Staphylococcus aureus [2] (strain (EM, CM, SM, PC, TC)r). Also, the MIC against Staphylococcus aureus [2] (strain (TC, CP, PC)r) stood at 0.094 µg/mL (≈ 0.109 µM); in the data set with Staphylococcus aureus [2] (strain Bx-1633(PC)r), 0.125 µg/mL (≈ 0.145 µM); with Staphylococcus aureus [2] (strain Russell(PC)r) it was 0.125 µg/mL (≈ 0.145 µM); with Staphylococcus aureus [2] (strain Smith), 0.125 µg/mL (≈ 0.145 µM); against Staphylococcus sp. (Staphylococcus sp. (PC)r) it was 0.4 µg/mL (≈ 0.463 µM); in the data set with Staphylococcus sp. (Staphylococcus sp.) it was 0.8 µg/mL (≈ 0.927 µM). Further, the MIC against Candida albicans is over 25 µg/mL; in data set [3], 0.025; against Salmonella gallinanum it was over 25 µg/mL; in [4], 0.4 µg/mL (≈ 0.463 µM); against Pseudeomonas aeruginosa, over 25 µg/mL; in [5] it was 0.78. In addition, the MIC in data set [6] is 0.39; against Mycoplasma fermentans, under 0.05; in data set [7], 0.4 µg/mL (≈ 0.463 µM); in the data set on Proteus vulgaris, over 25 µg/mL; in the data set on Sarcina lutea (Table 1, BHI broth), 0.4 µg/mL. In the data set with Staphylococcus aureus [2] (from the MIC values of Table 2), the “times more active than viridogrisein” value is 2-3 times. In addition, the “solubility in organic solvents” value in the data set “Solubility in solvents” is given as “soluble”. The “solubility in petroleum ether and hexane” value in the data set “Solubility in solvents” is reported as “practically insoluble”. For the same compound, the “solubility in water and ethyl ether” value in “Solubility in solvents” was “hardly soluble”.

With `C[C@@H]1C/C=C2\SC[C@@H](NC(=O)c3coc(n3)C[C@H](O)C[C@H](O)/C=C/C=C/CNC2=O)C(=O)O1` [GV, griseoviridin], the MIC in data set [3] is 0.10; in data set [5], 6.25; in data set [6], 3.13; with Mycoplasma fermentans, under 0.05; in the data set with Sarcina lutea (Table 3, varied ratios of neoviridogriseins mixture to griseoviridin, tube dilution, brain heart infusion broth), 0.250 µg/mL.
